The text below walks through data of ChEMBL document CHEMBL1155256, “A new small molecule that directly inhibits the DNA binding of NF-kappaB” (Bioorg Med Chem, 2009).

Structures are written as SMILES. pIC50: −log10 of the molar value.

The test deals with T1, Nuclear factor NF-kappa-B p105 subunit (Homo sapiens, UniProt P19838).
T1 sequence (P19838 whole entry): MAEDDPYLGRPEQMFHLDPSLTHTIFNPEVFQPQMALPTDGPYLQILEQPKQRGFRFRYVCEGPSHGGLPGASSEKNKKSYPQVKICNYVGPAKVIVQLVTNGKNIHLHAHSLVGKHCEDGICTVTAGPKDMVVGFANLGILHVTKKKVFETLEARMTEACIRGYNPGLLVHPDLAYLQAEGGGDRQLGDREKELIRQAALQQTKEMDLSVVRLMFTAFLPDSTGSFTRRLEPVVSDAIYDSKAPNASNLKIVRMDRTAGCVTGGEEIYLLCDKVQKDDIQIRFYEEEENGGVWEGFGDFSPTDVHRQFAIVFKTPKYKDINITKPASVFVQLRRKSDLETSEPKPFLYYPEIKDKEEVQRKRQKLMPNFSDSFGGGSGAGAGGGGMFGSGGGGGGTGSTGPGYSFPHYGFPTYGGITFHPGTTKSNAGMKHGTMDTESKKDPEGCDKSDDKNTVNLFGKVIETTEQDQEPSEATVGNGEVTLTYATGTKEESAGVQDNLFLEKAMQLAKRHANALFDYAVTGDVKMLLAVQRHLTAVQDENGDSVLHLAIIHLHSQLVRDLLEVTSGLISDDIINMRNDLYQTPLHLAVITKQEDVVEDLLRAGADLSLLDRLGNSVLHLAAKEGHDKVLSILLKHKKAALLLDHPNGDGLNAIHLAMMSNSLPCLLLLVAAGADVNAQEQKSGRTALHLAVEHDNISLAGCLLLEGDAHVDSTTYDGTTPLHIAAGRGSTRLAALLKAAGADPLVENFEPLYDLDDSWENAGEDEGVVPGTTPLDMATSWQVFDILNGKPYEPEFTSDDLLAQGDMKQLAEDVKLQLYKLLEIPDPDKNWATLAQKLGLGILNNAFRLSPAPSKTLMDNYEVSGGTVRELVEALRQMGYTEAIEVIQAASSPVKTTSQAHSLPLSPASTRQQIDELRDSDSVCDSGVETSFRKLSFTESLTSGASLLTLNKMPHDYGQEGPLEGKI
Put plainly: Inhibition of GST-fused human NF-kappaB p50 subunit DNA binding activity assessed as shortened diffusion time by fluorescence correlation spectroscopy.
Take `Clc1nc(Cl)nc(Nc2ccccc2)n1`: the pIC50 is 4.54.

On to `O=[N+]([O-])c1cccc(Nc2nc(Cl)nc(Cl)n2)c1`, for which the pIC50 is 3.92.

In the case of `Clc1ccc(Nc2nc(Cl)nc(Cl)n2)cc1`, the pIC50 is 3.96.

As to `O=[N+]([O-])c1ccc(Nc2nc(Cl)nc(Cl)n2)cc1`, the pIC50 is less than 3.52.

For the compound `Cc1cccc(Nc2nc(Cl)nc(Cl)n2)c1`, the pIC50 was 4.72.

Take `CC(C)c1ccc(Nc2nc(Cl)nc(Cl)n2)cc1`: the pIC50 is 4.13.

What is called pIC50 is the IC50 on a negative log10 scale, so that one unit is a factor of ten.
